Test [1] has as its target T1, HiBit-BRG1 fusion protein (Homo sapiens, UniProt P51532).
T1 construct: expressed in transfected cells
The experiment in a line: HiBiT-BRG1 cell-based degradation assay (Nano-Glo HiBiT Lytic Detection, 24 h). To be noted: HeLa cells expressing HiBit-BRG1 and LgBit; for DC50: read-out: BRG1 HiBit Degradation IC50; for Dmax: HeLa, top dose 30 μM, read-out: BRG1 HiBit Degradation Maximum measured. The procedure, abridged:
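Degradation is scaled from DMSO-treated cells (0%) to cells given 2 μM of a known BRM/BRG1 degrader (100%). HeLa cells stably carrying HiBiT-BRG1 plus LgBiT (5000/well) were lysed with Nano-Glo HiBiT detection reagent, shaken 10 min at RT, and luminescence read.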

Another test deals with T2, HiBit-BRM fusion protein (Homo sapiens, UniProt P51531).
T2 construct: expressed in transfected cells
The experiment in a line: HiBiT-BRM cell-based degradation assay (Nano-Glo HiBiT Lytic Detection, 24 h). The conditions noted are these: HeLa cells expressing HiBiT-BRM; for DC50: read-out: BRM HiBit Degradation IC50; for BRM HiBit Degradation Maximum measured: top dose 30 μM. The procedure, abridged: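 Residual HiBiT-BRM in a stable HeLa line was measured by Nano-Glo lytic luminescence after 24 h compound exposure (top final dose 30 μM, 3-fold, 10 points, duplicate). Values are % degradation, scaled between DMSO-treated cells and cells given 2 μM of a known BRM/BRG1 degrader.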
In general terms: HiBiT is a short tag that completes a luciferase, so light tracks the accessible tagged protein.

T2 sequence (P51531 whole entry, the tested form may be a part): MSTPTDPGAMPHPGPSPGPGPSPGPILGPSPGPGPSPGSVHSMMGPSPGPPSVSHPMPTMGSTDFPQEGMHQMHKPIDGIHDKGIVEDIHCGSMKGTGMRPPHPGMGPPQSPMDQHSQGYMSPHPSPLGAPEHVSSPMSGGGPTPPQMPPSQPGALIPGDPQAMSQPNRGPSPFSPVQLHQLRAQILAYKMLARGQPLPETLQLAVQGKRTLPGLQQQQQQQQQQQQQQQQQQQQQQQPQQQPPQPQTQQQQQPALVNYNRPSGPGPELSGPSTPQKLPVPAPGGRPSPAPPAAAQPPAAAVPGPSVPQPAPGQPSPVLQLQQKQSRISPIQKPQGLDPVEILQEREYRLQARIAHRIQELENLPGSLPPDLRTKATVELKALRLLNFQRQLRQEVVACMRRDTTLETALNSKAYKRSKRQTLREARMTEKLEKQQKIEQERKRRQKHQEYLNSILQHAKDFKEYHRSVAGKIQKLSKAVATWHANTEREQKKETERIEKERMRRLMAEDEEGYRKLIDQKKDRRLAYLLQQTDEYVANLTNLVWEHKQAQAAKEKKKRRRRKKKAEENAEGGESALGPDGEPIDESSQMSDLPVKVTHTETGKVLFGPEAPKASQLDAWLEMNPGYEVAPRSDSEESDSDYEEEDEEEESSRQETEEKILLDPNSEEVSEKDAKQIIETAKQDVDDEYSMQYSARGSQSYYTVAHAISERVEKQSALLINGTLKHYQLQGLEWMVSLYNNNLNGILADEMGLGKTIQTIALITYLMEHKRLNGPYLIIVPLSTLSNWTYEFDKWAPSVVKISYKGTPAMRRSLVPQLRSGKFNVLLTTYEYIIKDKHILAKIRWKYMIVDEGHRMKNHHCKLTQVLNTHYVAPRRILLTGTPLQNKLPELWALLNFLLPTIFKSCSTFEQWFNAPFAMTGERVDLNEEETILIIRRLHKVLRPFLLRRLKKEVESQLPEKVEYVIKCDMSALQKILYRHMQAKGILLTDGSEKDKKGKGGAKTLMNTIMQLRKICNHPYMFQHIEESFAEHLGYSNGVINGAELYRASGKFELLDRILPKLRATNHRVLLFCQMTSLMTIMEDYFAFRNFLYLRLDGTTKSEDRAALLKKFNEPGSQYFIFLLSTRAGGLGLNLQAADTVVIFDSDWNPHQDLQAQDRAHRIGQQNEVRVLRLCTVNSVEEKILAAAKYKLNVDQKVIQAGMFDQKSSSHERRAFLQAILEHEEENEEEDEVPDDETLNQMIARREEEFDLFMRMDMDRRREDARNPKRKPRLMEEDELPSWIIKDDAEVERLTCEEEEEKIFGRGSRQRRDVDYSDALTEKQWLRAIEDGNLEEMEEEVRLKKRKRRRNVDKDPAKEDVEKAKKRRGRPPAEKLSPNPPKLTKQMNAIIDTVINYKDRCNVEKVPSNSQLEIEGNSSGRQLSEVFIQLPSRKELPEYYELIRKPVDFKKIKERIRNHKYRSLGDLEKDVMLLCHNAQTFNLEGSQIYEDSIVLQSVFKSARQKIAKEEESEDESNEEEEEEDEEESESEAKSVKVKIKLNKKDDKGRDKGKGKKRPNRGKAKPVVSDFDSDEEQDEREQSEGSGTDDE
T1 sequence (P51532 whole entry, the tested form may be a part): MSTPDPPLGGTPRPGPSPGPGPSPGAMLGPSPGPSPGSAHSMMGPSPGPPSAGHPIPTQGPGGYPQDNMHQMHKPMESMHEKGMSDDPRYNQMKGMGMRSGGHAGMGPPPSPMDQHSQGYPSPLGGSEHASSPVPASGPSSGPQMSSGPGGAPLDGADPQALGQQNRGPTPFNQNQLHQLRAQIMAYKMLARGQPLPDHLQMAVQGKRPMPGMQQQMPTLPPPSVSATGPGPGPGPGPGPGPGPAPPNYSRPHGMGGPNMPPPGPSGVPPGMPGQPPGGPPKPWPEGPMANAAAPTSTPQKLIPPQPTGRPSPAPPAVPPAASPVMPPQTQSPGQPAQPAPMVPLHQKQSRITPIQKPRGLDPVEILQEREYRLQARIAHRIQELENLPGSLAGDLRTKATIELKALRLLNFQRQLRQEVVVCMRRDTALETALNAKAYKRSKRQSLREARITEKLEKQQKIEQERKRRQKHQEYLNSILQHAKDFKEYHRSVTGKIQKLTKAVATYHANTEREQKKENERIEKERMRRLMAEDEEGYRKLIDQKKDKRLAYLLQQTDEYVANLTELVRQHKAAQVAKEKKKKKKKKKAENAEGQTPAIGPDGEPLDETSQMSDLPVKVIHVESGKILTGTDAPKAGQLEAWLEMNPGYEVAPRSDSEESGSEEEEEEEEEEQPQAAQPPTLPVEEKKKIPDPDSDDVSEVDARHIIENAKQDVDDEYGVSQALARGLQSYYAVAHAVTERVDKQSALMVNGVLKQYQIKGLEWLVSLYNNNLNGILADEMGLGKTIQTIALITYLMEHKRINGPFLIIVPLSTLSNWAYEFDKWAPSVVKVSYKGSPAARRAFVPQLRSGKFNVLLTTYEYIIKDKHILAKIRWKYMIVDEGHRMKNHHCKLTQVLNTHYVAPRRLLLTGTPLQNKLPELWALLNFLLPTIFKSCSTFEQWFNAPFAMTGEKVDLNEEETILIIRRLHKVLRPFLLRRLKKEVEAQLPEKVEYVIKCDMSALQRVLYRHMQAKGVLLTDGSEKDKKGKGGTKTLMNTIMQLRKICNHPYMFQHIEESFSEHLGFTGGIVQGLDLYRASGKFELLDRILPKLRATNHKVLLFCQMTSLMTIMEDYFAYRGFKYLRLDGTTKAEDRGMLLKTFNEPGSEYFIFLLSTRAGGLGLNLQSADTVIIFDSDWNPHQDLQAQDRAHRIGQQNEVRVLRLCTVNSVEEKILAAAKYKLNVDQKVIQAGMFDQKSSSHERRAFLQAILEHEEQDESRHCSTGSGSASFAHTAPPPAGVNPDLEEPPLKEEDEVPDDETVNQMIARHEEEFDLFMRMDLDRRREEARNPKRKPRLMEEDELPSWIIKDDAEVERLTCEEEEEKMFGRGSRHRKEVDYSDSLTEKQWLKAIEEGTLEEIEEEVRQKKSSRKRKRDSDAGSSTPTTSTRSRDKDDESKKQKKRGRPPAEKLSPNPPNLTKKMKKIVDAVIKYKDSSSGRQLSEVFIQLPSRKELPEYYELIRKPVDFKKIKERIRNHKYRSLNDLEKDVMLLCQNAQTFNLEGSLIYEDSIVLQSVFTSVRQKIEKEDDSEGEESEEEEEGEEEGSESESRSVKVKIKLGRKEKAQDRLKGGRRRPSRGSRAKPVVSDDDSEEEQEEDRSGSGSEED

For the molecule `CS(=O)(=O)n1ccc(C(=O)NCC(=O)Nc2nc(-c3cccc(-c4ccnc(OCCNC(=O)CCOCCOCCNc5cccc6c5C(=O)N(C5CCC(=O)NC5=O)C6=O)c4)c3)cs2)c1` (centres unmarked) [Compound 81, N-[2-[[4-[3-[2-[2-[3-[2-[2-[[2-(2,6-dioxo-3-piperidyl)-1,3-dioxoisoindolin-4-yl]amino]ethoxy]ethoxy]propanoylamino]ethoxy]-4-pyridyl]phenyl]thiazol-2-yl]amino]-2-oxo-ethyl]-1-methylsulfonyl-pyrrole-3-carboxamide], in test [1], the DC50 lay in the range of 0.1 to 1 µM and the Dmax lay within 50 to 75%. For the same molecule, at HiBit-BRM fusion protein, the DC50 is greater than 10 µM and the “BRM HiBit Degradation Maximum measured” value was “C (‘C’ = Maximum degradation <50%)”.
`CS(=O)(=O)n1ccc(C(=O)NCC(=O)Nc2nc(-c3cccc(-c4ccnc(OCCNC(=O)CCCCCCCCCCNc5cccc6c5C(=O)N(C5CCC(=O)NC5=O)C6=O)c4)c3)cs2)c1` (centres unmarked) [Compound 82, N-[2-[[4-[3-[2-[2-[11-[[2-(2,6-dioxo-3-piperidyl)-1,3-dioxo-isoindolin-4-yl]amino]undecanoylamino]ethoxy]-4-pyridyl]phenyl]thiazol-2-yl]amino]-2-oxo-ethyl]-1-methylsulfonylpyrrole-3-carboxamide]: in test [1], the DC50 is greater than 10 µM and the Dmax was less than 50%. At HiBit-BRM fusion protein, the DC50 is greater than 10 µM and the “BRM HiBit Degradation Maximum measured” value is “C (‘C’ = Maximum degradation <50%)”.
Consider `CS(=O)(=O)n1ccc(C(=O)NCC(=O)Nc2nc(-c3cccc(-c4ccnc(OCCNC(=O)CCOCCOCCNc5ccc6c(c5)C(=O)N(C5CCC(=O)NC5=O)C6=O)c4)c3)cs2)c1` (centres unmarked) [Compound 83, N-[2-[[4-[3-[2-[2-[3-[2-[2-[[2-(2,6-dioxo-3-piperidyl)-1,3-dioxoisoindolin-5-yl]amino]ethoxy]ethoxy]propanoylamino]ethoxy]-4-pyridyl]phenyl]thiazol-2-yl]amino]-2-oxo-ethyl]-1-methylsulfonyl-pyrrole-3-carboxamide], for which, in test [1], the DC50 was greater than 10 µM and the Dmax was less than 50%. On HiBit-BRM fusion protein, the DC50 is greater than 10 µM and the “BRM HiBit Degradation Maximum measured” value is “C (‘C’ = Maximum degradation <50%)”.
For `CN(CCOCCOCCNc1cccc2c1C(=O)N(C1CCC(=O)NC1=O)C2=O)C(=O)CN(C)c1cc(-c2cccc(-c3csc(NC(=O)CNC(=O)c4ccn(S(C)(=O)=O)c4)n3)c2)ccn1` (centres unmarked) [Compound 84], in test [1], the DC50 is greater than 10 µM and the Dmax is less than 50%. At HiBit-BRM fusion protein, the DC50 was greater than 10 µM and the “BRM HiBit Degradation Maximum measured” value is given as “C (‘C’ = Maximum degradation <50%)”.
With `Cc1ncsc1-c1ccc(CNC(=O)[C@@H]2C[C@@H](O)CN2C(=O)[C@@H](NC(=O)CCCCCC(=O)NCCOc2cc(-c3cccc(-c4csc(NC(=O)CNC(=O)c5ccn(S(C)(=O)=O)c5)n4)c3)ccn2)C(C)(C)C)cc1` [Compound 85, N1-((S)-1-((2S,4R)-4-hydroxy-2-((4-(4-methylthiazol-5-yl)benzyl)carbamoyl)pyrrolidin-1-yl)-3,3-dimethyl-1-oxobutan-2-yl)-N7-(2-((4-(3-(2-(2-(1-(methylsulfonyl)-1H-pyrrole-3-carboxamido)acetamido)thiazol-4-yl)phenyl)pyridin-2-yl)oxy)ethyl)heptanediamide], in test [1], the DC50 lay within 0.1 to 1 µM and the Dmax is greater than 75%. Besides, on HiBit-BRM fusion protein, the DC50 is 0.1 to 1 µM and the “BRM HiBit Degradation Maximum measured” value is given as “A (‘A’ = Maximum degradation >75%)”.
